Where two headings read alike, the source gives them in different places.
What was measured:
5-lipoxygenase [1] = target: T1, 5-lipoxygenase (Homo sapiens, UniProt P09917); conditions: background; cited from earlier work
T1 sequence (P09917 1-674): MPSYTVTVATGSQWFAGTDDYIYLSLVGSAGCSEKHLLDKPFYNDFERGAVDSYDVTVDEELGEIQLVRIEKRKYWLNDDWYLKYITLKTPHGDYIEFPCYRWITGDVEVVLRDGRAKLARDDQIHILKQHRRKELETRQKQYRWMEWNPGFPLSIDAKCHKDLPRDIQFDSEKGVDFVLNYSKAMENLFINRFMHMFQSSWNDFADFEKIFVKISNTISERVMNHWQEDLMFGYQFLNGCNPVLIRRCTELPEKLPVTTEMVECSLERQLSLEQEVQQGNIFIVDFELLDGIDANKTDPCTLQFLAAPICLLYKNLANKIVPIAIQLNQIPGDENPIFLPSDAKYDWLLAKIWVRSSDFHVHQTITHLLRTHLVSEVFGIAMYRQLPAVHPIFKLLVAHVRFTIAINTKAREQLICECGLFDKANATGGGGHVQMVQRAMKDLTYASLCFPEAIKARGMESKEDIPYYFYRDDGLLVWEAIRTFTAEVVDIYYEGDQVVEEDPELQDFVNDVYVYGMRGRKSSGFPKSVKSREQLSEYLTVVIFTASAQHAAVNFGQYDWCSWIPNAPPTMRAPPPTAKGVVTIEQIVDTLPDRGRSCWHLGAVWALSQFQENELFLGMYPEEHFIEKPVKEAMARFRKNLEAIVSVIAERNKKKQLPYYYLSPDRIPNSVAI

5-lipoxygenase [2] = target: T1, 5-lipoxygenase; assay: 5-Lipoxygenase Enzyme Assay (colorimetric, ferric oxidation of xylenol orange); type: biochemical; set-up: purchased Cayman 60402
Procedure: This procedure was used for measuring the enzymatic activity of human recombinant 5-lipoxygenase using a colorimetric method based on the ferric oxidation of xylenol orange.
(§1) The test compound and/or vehicle was added to 0.5 μL 5-lipoxygenase in 50 mM Tris-HCl buffer, pH 7.4. The reaction was initiated by addition of 70 μM arachidonic acid in Tris-HCl buffer, pH 7.4, and terminated after a 10 minute incubation at room temperature by addition of FOX reagent (25 mM sulphuric acid, 100 μM xylenol orange, 100 μM iron (II) sulphate, methanol:water 9:1). The yellow color of acidified xylenol orange was converted to a blue color by the lipid hydroperoxide-mediated oxidation of Fe^2+ ions and the interaction of the resulting Fe^3+ ions with the dye. The complex was allowed to form during a 1 hour incubation at room temperature with shaking. Absorbance of the Fe^3+ complex was then measured at 620 nm using a spectrophotometer. Negative controls contained enzyme during the incubation step but substrate was not added until after the FOX reagent.

[3] = system: NIDDM male mice (C57BLKS/J-m+/+Lepr db); assay: Therapeutic study: serum glucose levels in diabetic animals; type: in vivo; conditions: i.p. twice daily
Procedure: In vivo evaluation of the role of dual inhibitor of both 5-LO and 12/15-LO enzymes in the reduction of serum glucose levels and insulin was performed in C57BLKs/J-m+/+Lepr db mice, a non-insulin dependent diabetic mellitus (NIDDM) model, as described in Examples. […] […].
Non-insulin dependent diabetic mellitus (NIDDM) male mice (C57BLKS/J-m+/+Lepr db), weighing 45±5 g (10 weeks of age) and provided by Institute for Animal Reproduction (IAR, Japan), were used.
Groups of 10 non-insulin dependent diabetic mellitus (NIDDM) male mice (C57BLKS/J-m+/+Lepr db), weighing 45±5 g and 10-weeks-old, were used. The animals were housed in Individually Ventilated Cages Racks (IVC Racks) throughout the experiment; all animals were allowed free access to sterilized Lab chow and sterilized distilled water. The test compounds, as well as vehicle (0.5% DMSO/2% Tween 80/0.9% NaCl), were each administered intraperitoneally twice daily (1st at 9:00 A.M. and 2nd at 16:00 P.M.) for a total of 14 consecutive days. Using blood samples collected from the orbital sinus, pre-treatment serum glucose and insulin levels were determined 24 hours prior to the first dosing on day 0. Post-treatment glucose and insulin levels were detected 4 hours after dosing on days 11 and 14. Also, serum glucose and insulin levels were obtained before and 15, 30 and 90 minutes after glucose loading (orally glucose tolerance test (OGTT) 2 g/kg), 4 hours following the dosing on day 11. Serum glucose and Insulin (on days 0, 11 and 14) levels were determined by enzymatic (Mutaratase-GOD) and ELISA (mouse insulin assay kit) methods, respectively. The percentage of post-treatment relative to pre-treatment group values obtained on days 11 and 14 were analyzed using One Way ANOVA followed by Dunnett's test for comparison between vehicle and treated groups. […]
For effect on OGTT, AUC (area under the curve) for the serum glucose at times 0, 15, 30, and 90 minutes after OGTT was plotted for each test compound and its respective vehicle control. […] Body weight and food intake were measured daily through the course of the study.

[4] = target: T2, porcine leukocyte 12/15-lipoxygenase (Sus scrofa, UniProt P16469); assay: 12/15-Lipoxygenase Enzyme Assay (colorimetric, ferric oxidation of xylenol orange); type: biochemical
T2 construct: purchased Cayman 60300
T2 sequence (P16469 1-663): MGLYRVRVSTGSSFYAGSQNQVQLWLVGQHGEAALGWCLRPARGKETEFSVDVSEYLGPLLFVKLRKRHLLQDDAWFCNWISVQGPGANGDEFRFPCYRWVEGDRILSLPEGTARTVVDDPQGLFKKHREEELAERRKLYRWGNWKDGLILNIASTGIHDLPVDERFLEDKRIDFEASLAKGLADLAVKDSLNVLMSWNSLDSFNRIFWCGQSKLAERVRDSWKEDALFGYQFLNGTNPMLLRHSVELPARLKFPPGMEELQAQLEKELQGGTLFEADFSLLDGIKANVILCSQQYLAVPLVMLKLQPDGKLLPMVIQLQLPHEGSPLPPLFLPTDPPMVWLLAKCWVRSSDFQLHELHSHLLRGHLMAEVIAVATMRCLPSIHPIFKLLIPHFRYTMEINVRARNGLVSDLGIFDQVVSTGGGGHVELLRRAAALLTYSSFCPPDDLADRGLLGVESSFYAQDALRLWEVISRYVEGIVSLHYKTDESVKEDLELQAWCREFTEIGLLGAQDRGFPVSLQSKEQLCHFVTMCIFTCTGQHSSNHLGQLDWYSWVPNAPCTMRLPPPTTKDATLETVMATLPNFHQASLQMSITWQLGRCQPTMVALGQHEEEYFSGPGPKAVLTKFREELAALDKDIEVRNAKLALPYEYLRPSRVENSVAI
Procedure: This procedure was used for measuring the enzymatic activity of porcine leukocyte 12/15-lipoxygenase using a colorimetric method based on the ferric oxidation of xylenol orange.
as §1, with “vehicle were” for “vehicle was”, “to 1.3” for “to 0.5”, “μL 12/15-lipoxygenase” for “μL 5-lipoxygenase”, “spectrophotometer.” for “spectrophotometer. Negative controls contained enzyme during the incubation step but substrate was not added until after the FOX reagent.”
Negative controls contained enzyme during the incubation step but substrate was not added until after the FOX reagent.

[5] = read-out: classification as dual inhibitor: 5-LO enzyme assay IC50
[6] = read-out: classification as dual inhibitor: 12/15-LO enzyme assay IC50

| Structure (SMILES) | 5-lipoxygenase inhibition / specificity as reported in the literature (5-lipoxygenase [1]) | IC50 (5-lipoxygenase [2]; [5]) [µM] | IC50 [4, 6] [µM] | also measured |
| --- | --- | --- | --- | --- |
| CC(Cc1ccc(O)c(O)c1)C(C)Cc1ccc(O)c(O)c1 (centres unmarked) [Compound A, Nordihydroguaiaretic acid (NDGA)] | inhibitor | – | – | – |
| Cc1c(O)cc2c(c1C)N(c1ccc(O)cc1)C(C)CC2 (centres unmarked) [Compound E, 1-(4-hydroxyphenyl)-2,7,8-trimethyl-1,2,3,4-tetrahydroquinolin-6-ol] | – | < 5 | < 5 | lowering of serum glucose levels compared to respective control (FIG. 2) ([3]; 15 mg/kg, p<0.05): significant lowering |
| Cc1c(O)c(C)c2c(c1F)OC(C)(C)CC2 [Compound D, 8-fluoro-2,2,5,7-tetramethylchroman-6-ol] | – | < 5 | < 5 | IC50 (5-lipoxygenase [2]; read-out: in vitro IC50 value in a 5-LO enzyme assay): < 5 µM; reduction in baseline elevated blood glucose level in comparison to the vehicle group [3]: 13%; IC50 ([4]; read-out: in vitro IC50 value in a 12/15-LO enzyme assay): < 5 µM |
| CC(c1cc2ccccc2s1)N(O)C(N)=O (centres unmarked) [C, Zileuton, reference compound] | specific | – | – | reduction in serum glucose relative to the respective vehicle control group (FIG. 2) ([3]; 30 mg/kg, p<0.01): reduction in serum glucose |

From US20060106014A1, “Methods for treating diabetes” (priority 2004, published 2006)
